The values below come from ChEMBL document CHEMBL4842340, “Development of Cagrilintide, a Long-Acting Amylin Analogue” (J Med Chem, 2021).

pEC50, pIC50: −log10 of the molar value. Values after ≈ are worked out from the molar mass of the structure shown. *1 amine or outer side, *2 acyl side, *3 side chain or, on linkers, in order; H or OH if unused. Where a SMILES comes first, the peptide text is derived from it. Bridges are numbered along the chain shown (N, C = ends). [ ]: non-standard residue; d: D form. The star is where a group is joined. X1 = O=C(NC(=O)[C@H](Cc1cnc[nH]1)N[*:1])[C@@H](Cc1cnc[nH]1)C(=O)[*:2]; C20 diacid = O=C(O)CCCCCCCCCCCCCCCCCCC(=O)*; γGlu = O=C(O)[C@H](CCC(=O)[*:2])N[*:1]; hArg = N=C(N)NCCCC[C@H](N)C(=O)O

Data set [1] is described as follows: Solubility of the compound in bis-tris propane at pH 7 by UPLC analysis. The format is physicochemical. The conditions noted are these: bis-tris propane buffer.
The nature of data set [2]: Agonist activity at rat calcitonin receptor expressed in BHK-13 cells assessed as increase in intracellular cAMP concentration incubated for 25 mins by CRE luciferase reporter gene assay. Format: cell-based. The conditions noted are these: BHK-13, 25 min. Background: In a reporter assay the amount or activity of a reporter protein is the signal.
The target in data set [3] is Insulin (Homo sapiens) (UniProt P01308). Briefly: Effect on insulin (unknown origin) amyloid fibril formation assessed as peptide recovery in glycyl-glycine buffer at pH 4 measured after 45 hrs by thioflavin-T fluorescence assay relative to control. The arrangement: concentration or dose not given beside the values.
Another data set is filed under the species Homo sapiens. The data set can be described thus: Ratio of EC50 for human calcitonin receptor expressed in BHK570 cells to EC50 for human AMY3R (CT+RAMP3) expressed in Hollex1 cells. The format is cell-based.
Data set [4] in a line: Solubility of the compound in lactate at pH 5 by UPLC analysis. Format: physicochemical. The conditions noted are these: lactate buffer.
Data set [5] can be described thus: Agonist activity at rat AMY3R (CT+RAMP3) expressed in tk-ts13 cells assessed as increase in intracellular cAMP level incuabted for 25 mins by CRE luciferase reporter gene assay. Format: cell-based. The following applies: tk-ts13, 25 min. (Changes in cAMP serve as a functional read-out for many G protein-coupled receptors.)
Data set [6] deals with Rattus norvegicus. The data set can be described thus: Reduction in food intake in Sprague-Dawley rat at 30 nmol/kg, sc administered as single dose measured upto 24 hrs relative to control. Format: functional. The arrangement: scale not given: the % may be the effect or the level left. The following applies: time hrs <=24.
The nature of data set [7]: Solubility of the compound in lactate at pH 4 by UPLC analysis. Format: physicochemical. The conditions noted are these: lactate buffer.
The nature of data set [8]: Solubility of the compound in bis-tris propane at pH 6.5 by UPLC analysis. The format is physicochemical. The conditions noted are these: bis-tris propane buffer.
Data set [9] concerns the target Insulin (Homo sapiens) (UniProt P01308). Briefly: Effect on insulin (unknown origin) amyloid fibril formation assessed as lag time in glycyl-glycine buffer at pH 4 measured after 45 hrs by thioflavin-T fluorescence assay.
Data set [10] has as its system Rattus norvegicus. The data set can be described thus: Reduction in food intake in Sprague-Dawley rat at 30 nmol/kg, sc administered as single dose measured after 24 to 48 hrs relative to control. Format: functional. Also noted: scale not given: the % may be the effect or the level left. The following applies: time 24-48 hrs.
The nature of data set [11]: Solubility of the compound in lactate at pH 3 by UPLC analysis. The format is physicochemical. The conditions noted are these: lactate buffer.
Data set [12] can be described thus: Solubility of the compound in bis-tris propane at pH 6 by UPLC analysis. The format is physicochemical. The conditions noted are these: bis-tris propane buffer.
Data set [13] is described as follows: Agonist activity at human AMY3R (CT+RAMP3) expressed in Hollex1 cells incubated for 3 hrs by luminescence assay. Format: cell-based. The conditions noted are these: Hollex1, 3 h.
For data set [14], the species on record is Rattus norvegicus. The data set can be described thus: Ratio of EC50 for rat calcitonin receptor expressed in BHK-13 cells to EC50 for rat AMY3R (CT+RAMP3) expressed in tk-ts13 cells. The format is cell-based.
The nature of data set [15]: Agonist activity at human calcitonin receptor expressed in BHK570 cells assessed as increase in intracellular cAMP concentration incubated for 3 hrs in absence of albumin by CRE luciferase reporter gene assay. Format: cell-based. The conditions noted are these: BHK570, 3 h.
Data set [16] can be described thus: Solubility of the compound in bis-tris propane at pH 7.5 by UPLC analysis. The format is physicochemical. The conditions noted are these: bis-tris propane buffer.
The nature of data set [17]: Solubility of the compound in bis-tris propane at pH 8 by UPLC analysis. The format is physicochemical. The conditions noted are these: bis-tris propane buffer.
A short description of data set [18]: Displacement of [125I]-amylin from human AMY3R (CTR+RAMP3) expressed in BHK-13 cells measured after 120 mins by scintillation proximity assay. Format: cell-based. Background: Displacement assays read how much labelled ligand stays bound in the presence of the test substance.

Sequence of Insulin (Homo sapiens) (P01308 whole entry): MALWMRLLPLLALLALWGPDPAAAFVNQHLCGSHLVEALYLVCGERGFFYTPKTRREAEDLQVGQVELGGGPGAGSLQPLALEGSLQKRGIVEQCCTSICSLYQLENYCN

As usually defined, the solubility is the dissolved amount per volume that the medium holds. By pEC50 is commonly meant the negative decadic logarithm of the EC50, by convention in mol/L. On to `CC[C@H](C)[C@H](NC(=O)[C@@H]1CCCN1C(=O)CNC(=O)[C@H](Cc1ccccc1)NC(=O)[C@H](CC(N)=O)NC(=O)[C@H](CC(N)=O)NC(=O)[C@H](CO)NC(=O)[C@H](CO)NC(=O)[C@H](Cc1cnc[nH]1)NC(=O)[C@H](Cc1cnc[nH]1)NC(=O)[C@H](CC(C)C)NC(=O)[C@H](Cc1ccccc1)NC(=O)[C@H](CCCNC(=N)N)NC(=O)[C@H](C)NC(=O)[C@H](CC(C)C)NC(=O)[C@H](CCCNC(=N)N)NC(=O)[C@H](CCC(N)=O)NC(=O)[C@@H](NC(=O)[C@H](C)NC(=O)[C@@H]1CSSC[C@H](NC(=O)[C@H](Cc2cnc[nH]2)NC(=O)[C@H](Cc2cnc[nH]2)NC(=O)[C@H](Cc2cnc[nH]2)NC(=O)CC[C@H](NC(=O)CCCCCCCCCCCCCCCCCCC(=O)O)C(=O)O)C(=O)N[C@@H](CC(N)=O)C(=O)N[C@@H]([C@@H](C)O)C(=O)N[C@@H](C)C(=O)N[C@@H]([C@@H](C)O)C(=O)N1)[C@@H](C)O)C(=O)N[C@@H](CC(C)C)C(=O)N1CCC[C@H]1C(=O)N1CCC[C@H]1C(=O)N[C@H](C(=O)N[C@@H](CC(N)=O)C(=O)N[C@H](C(=O)NCC(=O)N[C@@H](CO)C(=O)N[C@@H](CC(N)=O)C(=O)N[C@H](C(=O)N[C@@H](Cc1ccc(O)cc1)C(N)=O)[C@@H](C)O)C(C)C)[C@@H](C)O` ({C20 diacid-γGlu}-HHHCNTATCATQRLARFLHHSSNNFGPILPPTNVGSNTY-NH2; disulfide 4-9), for which the solubility in [1] is 1 µM (≈ 4.77 µg/mL); in data set [4] it was 200 µM (≈ 953 µg/mL); in data set [7] it was 200 µM (≈ 953 µg/mL); in data set [8], 117 µM (≈ 558 µg/mL); in data set [11], 200 µM (≈ 953 µg/mL); in data set [12] it was 200 µM (≈ 953 µg/mL). Also, the pEC50 is 8.15 in data set [2], 9.84 in data set [5], 10.16 in [13] and 9.40 in data set [15]. Further, the values for the Activity at Insulin (Homo sapiens) [3], in the data set on Rattus norvegicus [6] and with Rattus norvegicus [10] were 10%, 65% and 25%, respectively. For the same molecule, the Ratio EC50 stood at 6 in the data set filed under Homo sapiens and 50 in the data set filed under Rattus norvegicus [14]. Moreover, the TIME on Insulin (Homo sapiens) [9] is 10 h.
For orientation: pIC50 means the IC50 on a negative log10 scale, so that one unit is a factor of ten. `CC[C@H](C)[C@H](NC(=O)[C@@H]1CCCN1C(=O)CNC(=O)[C@H](Cc1ccccc1)NC(=O)[C@H](CC(N)=O)NC(=O)[C@H](CC(N)=O)NC(=O)[C@H](CO)NC(=O)[C@H](CO)NC(=O)[C@H](Cc1cnc[nH]1)NC(=O)[C@H](Cc1cnc[nH]1)NC(=O)[C@H](CC(C)C)NC(=O)[C@H](Cc1ccccc1)NC(=O)[C@H](CC(N)=O)NC(=O)[C@H](C)NC(=O)[C@H](CC(C)C)NC(=O)[C@H](CCCCNC(=N)N)NC(=O)[C@H](CCC(N)=O)NC(=O)[C@@H](NC(=O)[C@H](C)NC(=O)[C@@H]1CSSC[C@H](NC(=O)[C@H](Cc2cnc[nH]2)NC(=O)[C@H](Cc2cnc[nH]2)C(=O)NC(=O)[C@H](Cc2cnc[nH]2)NC(=O)CC[C@H](NC(=O)CCCCCCCCCCCCCCCCCCC(=O)O)C(=O)O)C(=O)N[C@@H](CC(N)=O)C(=O)N[C@@H]([C@@H](C)O)C(=O)N[C@@H](C)C(=O)N[C@@H]([C@@H](C)O)C(=O)N1)[C@@H](C)O)C(=O)N[C@@H](CC(C)C)C(=O)N1CCC[C@H]1C(=O)N1CCC[C@H]1C(=O)N[C@H](C(=O)N[C@@H](CC(N)=O)C(=O)N[C@H](C(=O)NCC(=O)N[C@@H](CO)C(=O)N[C@@H](CC(N)=O)C(=O)N[C@H](C(=O)N[C@@H](Cc1ccc(O)cc1)C(N)=O)[C@@H](C)O)C(C)C)[C@@H](C)O` ({C20 diacid-γGlu}-[X1]HCNTATCATQ[hArg]LANFLHHSSNNFGPILPPTNVGSNTY-NH2; disulfide 3-8): the solubility in data set [1] was found to be 2 µM (≈ 9.53 µg/mL); in [16], 7 µM (≈ 33.4 µg/mL); in data set [4], 200 µM (≈ 953 µg/mL); in data set [7], 200 µM (≈ 953 µg/mL); in [8] it was 50 µM (≈ 238 µg/mL); in data set [11], 200 µM (≈ 953 µg/mL). The solubility was found to be 200 µM (≈ 953 µg/mL) in [12] and 25 µM (≈ 119 µg/mL) in data set [17]. The negative-log EC50 (pEC50) in [2] was 8.35; in data set [5], 9.49; in [13], 9.99; in data set [15], 9.41. The Activity at Insulin (Homo sapiens) [3] came out at 21%; in the data set with Rattus norvegicus [6] it was 24%; in the data set on Rattus norvegicus [10], 2%. For the same molecule, the Ratio EC50 in the data set listed under Homo sapiens was 4; in the data set listed under Rattus norvegicus [14], 7. The TIME on Insulin (Homo sapiens) [9] is 4 h. Further, the negative-log IC50 (pIC50) in data set [18] was 8.96.
Regarding `CC[C@H](C)[C@H](NC(=O)[C@@H]1CCCN1C(=O)CNC(=O)[C@H](Cc1ccccc1)NC(=O)[C@H](CC(N)=O)NC(=O)[C@H](CC(N)=O)NC(=O)[C@H](CO)NC(=O)[C@H](CO)NC(=O)[C@H](Cc1cnc[nH]1)NC(=O)[C@H](Cc1cnc[nH]1)NC(=O)[C@H](CC(C)C)NC(=O)[C@H](Cc1ccccc1)NC(=O)[C@H](CCC(=O)O)NC(=O)[C@H](C)NC(=O)[C@H](CC(C)C)NC(=O)[C@H](CCCNC(=N)N)NC(=O)[C@H](CCC(N)=O)NC(=O)[C@@H](NC(=O)[C@H](C)NC(=O)[C@@H]1CSSC[C@H](NC(=O)[C@H](Cc2cnc[nH]2)NC(=O)[C@H](Cc2cnc[nH]2)NC(=O)[C@H](Cc2cnc[nH]2)NC(=O)CC[C@H](NC(=O)CCCCCCCCCCCCCCCCCCC(=O)O)C(=O)O)C(=O)N[C@@H](CC(N)=O)C(=O)N[C@@H]([C@@H](C)O)C(=O)N[C@@H](C)C(=O)N[C@@H]([C@@H](C)O)C(=O)N1)[C@@H](C)O)C(=O)N[C@@H](CC(C)C)C(=O)N1CCC[C@H]1C(=O)N1CCC[C@H]1C(=O)N[C@H](C(=O)N[C@@H](CC(N)=O)C(=O)N[C@H](C(=O)NCC(=O)N[C@@H](CO)C(=O)N[C@@H](CC(N)=O)C(=O)N[C@H](C(=O)N[C@@H](Cc1ccc(O)cc1)C(N)=O)[C@@H](C)O)C(C)C)[C@@H](C)O` ({C20 diacid-γGlu}-HHHCNTATCATQRLAEFLHHSSNNFGPILPPTNVGSNTY-NH2; disulfide 4-9), the negative logarithm of the EC50 (pEC50) is 9.07 in data set [2], 10.08 in data set [5], 10.13 in [13] and 9.70 in data set [15]. Further, the Activity was 3% at Insulin (Homo sapiens) [3], 87% with Rattus norvegicus [6] and 92% in the data set on Rattus norvegicus [10]. Besides, the Ratio EC50 in the data set listed under Homo sapiens was 3; in the data set listed under Rattus norvegicus [14] it was 10. The solubility in data set [4], in [7], in [11], in data set [12] and in data set [17] was 200 µM (≈ 948 µg/mL) throughout. For the same molecule, the TIME at Insulin (Homo sapiens) [9] worked out at 7 h. Further, the negative-log IC50 (pIC50) in data set [18] was 9.14.
